Laboratory results as given in PMC9467556, “Identification of novel pyrrolopyrimidine and pyrrolopyridine derivatives as potent ENPP1 inhibitors” (Journal of Enzyme Inhibition and Medicinal Chemistry, 2022).
Counter-ions that a name gives are not always drawn.

Tests used:
[1] = system: IFN-β secretion in THP-1 cells; assay: IFN-β cytokine release by ELISA; settings: co-treatment with cGAMP, 8 h
Procedure: Extracellular secretion of IFN-β and IP-10 was measured by enzyme-linked immunosorbent assay (ELISA).
THP-1 cells were seeded in 96 well plate and treated with the compounds for 8 h incubation. 100 μL of cell culture supernatant was harvested and analysed using manufactural protocols.

THP-1 cells = assay: cell viability assay (MTS); type: cell-based, human; settings: all concentrations tested
Procedure: Cell viability assay was performed using residual cells after luciferase assay. Cells were analysed using CellTiter 96 Aqueous One Solution Proliferation Assay (MTS, Promega) according to the manufactural protocols. Absorbance signal were measured using microplate reader (TECAN). Results were normalized using DMSO as a control.

[2] = system: ISRE-mediated reporter gene induction in THP-1 cells; assay: ISRE/IRF luciferase reporter assay in THP-1 dual cells with cGAMP; settings: co-treatment with cGAMP (1 μg/mL), 24 h
[3] = system: 4T1 syngeneic mouse tumour model; assay: 4T1 syngeneic mouse tumour model efficacy; type: in vivo; settings: 40 mg/kg orally once daily, day 14, 4T1 tumour in BALB/c mice
Procedure: Thus, we evaluated the anti-cancer efficacy in the 4T1 syngeneic mouse tumour model to test the therapeutic potential of 18p. We postulated the marginal amount of cGAMP released by tumour could initiate the synergy effect of 18p, then administrated the compound by single-treatment[5]. After 4T1 tumour cells were implanted and grown in the flank of mice, 18p was orally administered (40 mg/kg) once daily and monitored the tumour volume and body weight of each mouse.
Figure 7. 4 × 10^5 of 4T1 cells were subcutaneously inoculated into right side flank of BLAB/c mice (n = 6). Mice were orally administrated by 18p (40 mg/kg) or vehicle by every day. (a) Tumour growth curve of 18p or vehicle. X-axis indicates days after treatment. (b) Tumour growth (%) on day 14. (c) Body weight of 18p or vehicle. X-axis indicates days after treatment. Statistics for tumour volume and tumour growth were analysed by 2way ANOVA and student t-test. *p < 0.05. **p < 0.01. Graphs are depicted by mean and SD.
The study for murine 4T1 […] was approved by the Institutional Animal Care and Use Committee (IACUC) of the Korea Institute of Science and Technology (KIST-2021–04-048). Female BALB/c mice were 8 weeks obtained from DBL (Korea). […] Tumour volume was calculated by following formula: Tumour volume (mm^3) = 0.5 × [length, (mm) × width, (mm)2].

CYP2C19 = CYP2C19 (Homo sapiens, UniProt P33261); assay: CYP inhibition profile; type: in vitro ADME; settings: compound 10 μM
CYP2C19, sequence (P33261 whole entry): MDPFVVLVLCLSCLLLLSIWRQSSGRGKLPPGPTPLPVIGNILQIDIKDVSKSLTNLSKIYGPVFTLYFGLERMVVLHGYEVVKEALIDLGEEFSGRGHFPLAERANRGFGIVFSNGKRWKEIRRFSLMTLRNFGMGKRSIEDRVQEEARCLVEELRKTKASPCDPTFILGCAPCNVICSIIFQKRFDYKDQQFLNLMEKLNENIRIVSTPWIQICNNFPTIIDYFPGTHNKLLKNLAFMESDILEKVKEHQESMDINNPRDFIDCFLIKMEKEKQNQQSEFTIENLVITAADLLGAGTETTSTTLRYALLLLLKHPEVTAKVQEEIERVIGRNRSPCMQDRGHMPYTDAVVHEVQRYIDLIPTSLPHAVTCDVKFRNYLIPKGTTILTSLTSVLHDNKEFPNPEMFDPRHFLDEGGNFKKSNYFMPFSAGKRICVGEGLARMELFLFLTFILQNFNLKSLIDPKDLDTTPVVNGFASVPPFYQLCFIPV
Excerpt: Table 3. CYP inhibition profile. | column: % inhibition / CYP2C19

[4] = system: phosphorylation of STAT1 in THP-1 cells; assay: western blot of STING downstream signalling; type: cell-based, human; settings: cGAMP (1 μg/mL) then 18p, 6 h
Procedure: (§1) To evaluate whether 18p induced desired immune response via activation of STING pathway, we investigated the activation of downstream effector proteins, IRF3 and STAT1 that were known as major regulatory proteins of STING and IFN-β, respectively.
(§2) Figure 6. Western blot analysis for STING downstream signalling pathway. THP-1 cells were treated with cGAMP (1 μg/mL) first, and then treated with either DMSO or 18p at indicated concentration for 6 h. Tubulin was used as a loading control.
(§3) Cells were washed by PBS and harvested with RIPA buffer (Bioseasang). After centrifugation with 20,000 × g for 20 min at 4 °C. Cell lysates were separated by SDS-polyacrylamide gel electrophoresis and transferred on PVDF membranes through the Trans-Blot Turbo Transfer System (Bio-Rad). The membranes were blocked in 5% BSA in TBST for 1 h at room temperature and followed by incubation with primary antibody solution for overnight. […] After washing with TBST, all antibodies were detected by anti-rabbit-HRP-linked secondary antibody (Cell signalling/no. 7074, 1:3000). β-Tubulin was used as a loading control for the amount of total protein. Luminescence signal was detected using ECL reagent and immunoreactive bands were captured with the ChemiDoc imaging systems (Bio-Rad).

[5] = system: phosphorylation of IRF3 in THP-1 cells; assay: western blot of STING downstream signalling; type: cell-based, human; settings: cGAMP (1 μg/mL) then 18p, 6 h
Procedure: as §1, §2, §3

[6] = system: interferon stimulated genes (ISG) CXCL10, OAS1, IFITM1 in THP-1 cells; assay: real-time PCR of interferon stimulated genes; type: cell-based, human; settings: co-treatment with cGAMP, 4 h, normalized by GAPDH
Procedure: Next, we further explored type I IFN response induced by activation of STING signalling. The gene expression for various interferon stimulated genes (ISGs) such as CXCL10, OAS1, and IFITM1 was analysed by real-time PCR.
Figure 5. Real-time PCR analysis for gene expression of various interferon stimulated genes (ISG), CXCL10, OAS1, and IFITM1. THP-1 cells were stimulated by indicated concentration of 18p for 4 h. The relative gene expression level was normalized by GAPDH as an internal standard. Graphs depict mean and RQ max values.
Cells were harvest and RNA were isolated using NucleoSpin RNA plus (MN) according to the manufacturer’s instructions. Genomic DNA was removed and cDNA was synthesised using an iScript gDNA clear cDNA synthesis kit (Bio-Rad). Expression levels were assessed by real-time PCR (CFX96 Real-Time PCR detection system, Bio-rad) using IQ SYBR green Supermix (Bio-Rad). The mRNA levels were normalized by GAPDH and calculated by comparative Ct method.

[7] = liver microsomal stability; type: in vitro ADME, mouse; settings: % remaining during 30 min at 1 µM
CYP3A4 = CYP3A4 (Homo sapiens, UniProt P08684); assay: CYP inhibition profile; type: in vitro ADME; settings: compound 10 μM
CYP3A4, sequence (P08684 whole entry): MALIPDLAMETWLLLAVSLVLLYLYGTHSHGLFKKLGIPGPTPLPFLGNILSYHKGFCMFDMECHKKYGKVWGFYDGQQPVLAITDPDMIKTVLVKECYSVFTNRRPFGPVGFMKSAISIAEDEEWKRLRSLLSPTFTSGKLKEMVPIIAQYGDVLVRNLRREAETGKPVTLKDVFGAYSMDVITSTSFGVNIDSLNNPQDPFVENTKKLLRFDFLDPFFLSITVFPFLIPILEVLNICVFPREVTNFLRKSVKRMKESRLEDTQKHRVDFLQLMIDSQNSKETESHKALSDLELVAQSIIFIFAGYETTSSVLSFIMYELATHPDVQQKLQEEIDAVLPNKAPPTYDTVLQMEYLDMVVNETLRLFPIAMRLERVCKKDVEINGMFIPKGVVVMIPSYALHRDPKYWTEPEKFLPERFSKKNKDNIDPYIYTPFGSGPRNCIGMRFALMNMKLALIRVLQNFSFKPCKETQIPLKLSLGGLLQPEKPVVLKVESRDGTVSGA
Excerpt: Table 3. CYP inhibition profile. | column: % inhibition / CYP3A4

CYP2C9 = CYP2C9 (Homo sapiens, UniProt P11712); assay: CYP inhibition profile; type: in vitro ADME; settings: compound 10 μM
CYP2C9, sequence (P11712 whole entry): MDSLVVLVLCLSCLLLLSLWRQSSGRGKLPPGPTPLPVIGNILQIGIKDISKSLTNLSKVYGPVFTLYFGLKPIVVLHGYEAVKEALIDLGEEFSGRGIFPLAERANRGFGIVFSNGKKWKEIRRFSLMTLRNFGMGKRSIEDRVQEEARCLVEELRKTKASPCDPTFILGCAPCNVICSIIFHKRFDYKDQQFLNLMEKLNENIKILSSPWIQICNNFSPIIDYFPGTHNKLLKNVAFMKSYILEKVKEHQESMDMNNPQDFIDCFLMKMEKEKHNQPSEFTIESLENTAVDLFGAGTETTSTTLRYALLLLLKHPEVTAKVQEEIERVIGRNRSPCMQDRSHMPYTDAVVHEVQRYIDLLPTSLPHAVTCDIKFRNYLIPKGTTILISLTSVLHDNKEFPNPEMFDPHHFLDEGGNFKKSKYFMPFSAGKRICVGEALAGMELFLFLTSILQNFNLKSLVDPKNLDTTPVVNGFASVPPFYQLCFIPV
Excerpt: Table 3. CYP inhibition profile. | column: % inhibition / CYP2C9

[8] = pharmacokinetics in BALB/c mice; type: in vivo

Structure (SMILES): CC1(CNS(N)(=O)=O)CCN(c2ncnc3[nH]ccc23)CC1 [18p, N-((4-Methyl-1-(7H-pyrrolo[2,3-d]pyrimidin-4-yl)piperidin-4-yl)methyl)methanesulfamide hydrochloride]
- IFN-β cytokine release [1]: secreted more cytokine than with cGAMP alone
- cell viability / toxicity (THP-1 cells): no obvious toxicity
- cGAMP-induced ISRE activation (luciferase signal) [2]: clearly increased the cGAMP-induced ISRE activation in dose-dependent manner
- TGI [3]: 39%
- % inhibition CYP2C19 (CYP2C19): 10.3%
- phosphorylation of STAT1 [4]: increased phosphorylation of IRF3 and STAT1 was observed in dose-dependent manner
- phosphorylation of IRF3 [5]: increased phosphorylation of IRF3 and STAT1 was observed in dose-dependent manner
- gene expression of interferon stimulated genes (CXCL10, OAS1, IFITM1) [6]: induced expression of all ISG genes we tested
- Microsomal stability (%) Mouse [7]: 83%
- % inhibition CYP3A4 (CYP3A4): 8.9%
- % inhibition CYP2C9 (CYP2C9): 0.0%
- CI ([8]; IV, 1 mg/kg): 125 mL/min/kg
- AUC ([8]; mouse, plasma, IV, 1 mg/kg): 126 ng·h/mL
- AUC(0-t) ([8]; mouse, plasma, IV, 1 mg/kg): 125 ng·h/mL
- Cmax ([8]; mouse, plasma, IV, 1 mg/kg): 303 ng/mL
- Tmax ([8]; mouse, plasma, IV, 1 mg/kg): 4.98 min
- half-life ([8]; mouse, plasma, IV, 1 mg/kg): 15 min
- Vd ([8]; mouse, plasma, IV, 1 mg/kg, read-out: Vss): 2.3 L/kg
- bioavailability ([8]; mouse, plasma, PO 10 mg/kg vs IV 1 mg/kg): > 100%
- AUC ([8]; mouse, plasma, PO, 10 mg/kg): 1700 ng·h/mL
- AUC(0-t) ([8]; mouse, plasma, PO, 10 mg/kg): 1690 ng·h/mL
- Cmax ([8]; mouse, plasma, PO, 10 mg/kg): 1550 ng/mL
- Tmax ([8]; mouse, plasma, PO, 10 mg/kg): 30 min
- half-life ([8]; mouse, plasma, PO, 10 mg/kg): 93.6 min
